Consider 2 compounds from paper PMC4699555 (Journal of pharmaceutical sciences, 2012).

Like-named read-outs stand apart in the source and are kept apart here.

Data set [1] is classed as in vivo, Sprague-Dawley rats.
For data set [2] the following is noted: cited from earlier work.
The conditions of data set [3]: cited from earlier work. The source holds these as a separate data set.
For data set [4] the following is noted: cited from earlier work. This is another data set of the same source.
The conditions of data set [5]: human studies; cited from earlier work.
The conditions of data set [6]: cited from earlier work. This is another data set of the same source.

Take `O=C(O)CCC(=O)Nc1ccccc1` [4-anilino-4-oxobutanoic acid]: the “Time up to which the metabolite could be detected in rat serum” value in data set [1] (after i.v. (10 mg/kg) and oral (50 mg/kg) vorinostat) is on record as “up to 12 h”. In addition, the “Detection of metabolite in urine” value in data set [1] (rats, after i.v. and oral vorinostat) is listed as “detected”.
A word on the Tmax: it is the time at which the peak concentration occurs. Broadly, the Aqueous solubility is the dissolved amount per volume that the medium holds. In the case of `O=C(CCCCCCC(=O)Nc1ccccc1)NO` [Vorinostat, suberoylanilide hydroxamic acid], the Elimination half-life entry in data set [2] (animal studies) is recorded as “approximately 2 hours”. Further, in data set [2] (rats, oral 10 mg/kg), the Oral bioavailability is 11% and the Tmax was 18 ± 6 min. In addition, the “Biopharmaceutics Classification System (BCS) class” value in data set [3] was “Class IV”. Also, the Log partition coefficient in data set [4] is 1.9. In addition, the Elimination half-life result in data set [5] is listed as “approximately 2 hours”. The Aqueous solubility in data set [6] was 200 µg/mL.
